Here are results for 2 compounds from patent US5232928A, “Tetrahydroisoquinoline amides” (Boehringer Ingelheim Pharmaceuticals, Inc., priority 1991, dated 1993).

What all share (assay type): biochemical
The target of assay [1] is T1, Human Leukocyte Elastase (Homo sapiens, UniProt P08246).
T1 construct: purchased Elasten Products Co., Pacific, Mo; host or cells: human sputum
T1 sequence (P08246 30-247 limits assumed): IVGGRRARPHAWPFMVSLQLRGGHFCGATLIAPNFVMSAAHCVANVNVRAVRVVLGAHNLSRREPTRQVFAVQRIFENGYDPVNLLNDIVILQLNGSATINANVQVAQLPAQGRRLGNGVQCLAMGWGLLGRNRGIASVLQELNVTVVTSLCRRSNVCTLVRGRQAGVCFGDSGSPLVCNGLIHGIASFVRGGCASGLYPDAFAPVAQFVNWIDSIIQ
Briefly: Elastase inhibition in vitro, MeO-Suc-Ala-Ala-Pro-Val-pNA hydrolysis (human sputum elastase). The source says:
The method of K. Nakajima et al., Journal of Biological Chemistry, 254: 4027-4032 was adapted to a microtiter format. The in vitro assay is based upon the hydrolysis of the commercially available (Sigma Chemical Company, St. Louis, Mo.) substrate methoxy O-succinyl-L-alanyl-L-alanyl-L-prolyl-L-valine para - nitroanilide (MeO-Suc-Ala-Ala-Pro-Val-pNA) and the release of para-nitroanilide (pNA), which absorbs at 405 nm.
b. Vmax Kinetic Microtiter Plate Reader, equipped with 405 nm filter (Molecular Devices)
a. Human sputum elastase (HSE) (Elasten Products Co., Pacific, Mo.) dissolved 1 mg/mL in 0.05M sodium chloride and frozen (50 μL aliquots) at -20° C. until used.
b. Stock solution of MeO-Suc-Ala-Ala-Pro-Val-pNA dissolved at 15 mM in dimethylsulfoxide (DMSO) and frozen (4 mL aliquots) at -20° C. until used.
c. Assay buffer: 0.1M tris buffer, pH 7.5 containing 0.5M sodium choloride.
Screening is performed in microtiter plates, using 0.5 mM substrate and monitored on a Microtiter Reader. Enzyme activity (+/- test compound) is determined as the rate of pNA release (linear regression analysis of slope). Inhibitory activity of the test compound is calculated relative to the uninhibited enzyme control, as follows: [formula]
A frozen aliquot of HSE is thawed and diluted with assay buffer to a stock concentration of 0.02 mg/mL (30×assay concentration). […]

Assay [2] deals with Thrombin (Homo sapiens, UniProt P00734). In words: Selectivity assay: thrombin. To be noted: selectivity table.
In assay [3] the target is Urokinase (Homo sapiens, UniProt P00749). Briefly: Selectivity assay: urokinase. The following applies: selectivity table.
The target in assay [4] is T2, Human C1 Esterase (Homo sapiens, UniProt P09871).
T2 sequence (P09871 438-688 limits assumed): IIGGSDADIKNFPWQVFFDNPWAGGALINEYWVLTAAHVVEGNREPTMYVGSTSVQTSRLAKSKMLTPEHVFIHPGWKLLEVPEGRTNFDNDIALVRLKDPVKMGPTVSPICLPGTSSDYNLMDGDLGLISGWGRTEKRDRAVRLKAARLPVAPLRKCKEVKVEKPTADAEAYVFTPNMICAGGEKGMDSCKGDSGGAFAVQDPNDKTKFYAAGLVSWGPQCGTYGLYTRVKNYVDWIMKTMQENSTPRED
T2 sequence (P09871 16-437 partner limits assumed): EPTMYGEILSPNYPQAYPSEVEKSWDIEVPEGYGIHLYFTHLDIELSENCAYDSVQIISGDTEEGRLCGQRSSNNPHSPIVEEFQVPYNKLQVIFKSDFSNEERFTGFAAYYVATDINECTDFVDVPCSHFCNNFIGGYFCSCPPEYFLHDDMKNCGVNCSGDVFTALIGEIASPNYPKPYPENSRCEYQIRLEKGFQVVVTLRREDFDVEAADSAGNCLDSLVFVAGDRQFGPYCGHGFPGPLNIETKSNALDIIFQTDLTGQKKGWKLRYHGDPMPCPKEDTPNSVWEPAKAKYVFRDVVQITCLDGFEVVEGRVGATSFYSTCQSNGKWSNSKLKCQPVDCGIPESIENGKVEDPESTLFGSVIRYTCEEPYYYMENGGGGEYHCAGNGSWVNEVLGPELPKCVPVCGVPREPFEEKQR
Briefly: Selectivity assay: human C1 esterase. To be noted: selectivity table.

In assay [5] the target is Cathepsin B (Homo sapiens, UniProt P07858). In words: Selectivity assay: cathepsin B. To be noted: selectivity table.
The target of assay [6] is Plasmin (Homo sapiens, UniProt P00747). Briefly: Selectivity assay: plasmin. The following applies: selectivity table.
Plasmin, sequence (P00747 581-810 limits assumed, species assumed): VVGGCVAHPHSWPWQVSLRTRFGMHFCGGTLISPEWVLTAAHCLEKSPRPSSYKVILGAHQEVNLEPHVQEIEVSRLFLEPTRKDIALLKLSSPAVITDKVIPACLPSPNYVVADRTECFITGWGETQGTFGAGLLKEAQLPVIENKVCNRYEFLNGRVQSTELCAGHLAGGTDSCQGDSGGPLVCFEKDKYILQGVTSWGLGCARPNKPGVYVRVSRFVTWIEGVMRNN
Plasmin, sequence (P00747 97-580 partner limits assumed, species assumed): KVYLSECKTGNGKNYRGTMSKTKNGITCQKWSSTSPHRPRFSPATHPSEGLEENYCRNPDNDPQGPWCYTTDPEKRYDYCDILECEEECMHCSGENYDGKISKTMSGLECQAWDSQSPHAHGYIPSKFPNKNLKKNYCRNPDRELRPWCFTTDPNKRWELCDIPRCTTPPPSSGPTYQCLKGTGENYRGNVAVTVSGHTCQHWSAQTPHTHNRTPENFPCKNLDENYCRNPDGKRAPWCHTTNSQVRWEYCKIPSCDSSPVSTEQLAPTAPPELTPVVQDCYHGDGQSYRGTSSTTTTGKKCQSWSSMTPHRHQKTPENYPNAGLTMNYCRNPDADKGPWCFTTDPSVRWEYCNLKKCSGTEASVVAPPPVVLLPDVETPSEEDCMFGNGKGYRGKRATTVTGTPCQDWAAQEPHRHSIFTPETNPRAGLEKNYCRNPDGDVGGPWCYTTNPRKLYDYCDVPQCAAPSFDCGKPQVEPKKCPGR
Assay [7] concerns the target Chymotrypsin (Bos taurus, UniProt P00766). In words: Selectivity assay: chymotrypsin. The following applies: selectivity table.
Assay [8] addresses T3, Recombitant HIV Protease (Human immunodeficiency virus type 1 group M subtype B, UniProt P04585).
T3 construct: Recombitant HIV Protease
Briefly: Selectivity assay: recombinant HIV protease. To be noted: selectivity table.

The target in assay [9] is Recombitant 3C - Proteinase. In words: Selectivity assay: recombinant 3C-proteinase. To be noted: selectivity table.

SMILES strings stand for the structures. Read-outs that look alike come from different tables or passages of the source. Where a SMILES comes first, the peptide text is derived from it. [ ]: non-standard residue; d: D form. The star is where a group is joined. ξ: configuration not given here. ξTic = O=C(O)C1Cc2ccccc2CN1; Cbz = O=C(OCc1ccccc1)*; ξV = CC(C)C(N)C(=O)O; CF3 = FC(F)(F)*

On to `CC(C)C(NC(=O)C1Cc2ccccc2CN1C(=O)[C@@H](NC(=O)OCc1ccccc1)C(C)C)C(=O)C(F)(F)F` (stereo partly drawn) [CBZ] (Cbz-Val-[ξTic]-[ξV]-CF3), for which the IC50 in [1] (Table I, in vitro inhibition, 0.5 mM substrate, pH 7.5, read-out: In Vitro IC50) is below 17.8 µM.
Consider `CC(C)C(NC(=O)C1Cc2ccccc2CN1C(=O)[C@@H](NC(=O)c1ccc(C(=O)NS(=O)(=O)c2ccc(Cl)cc2)cc1)C(C)C)C(=O)C(F)(F)F` (stereo partly drawn) [p-[p-Cl(C6 H4)SO2 NHCO](C6 H4)CO, [[4-(4-Chlorophenyl)sulfonylaminocarbonyl]phenyl-1-oxomethyl]-L-valyl-N-[3-(1,1,1-trifluoro-4-methyl-2-oxopentyl)]-1,2,3,4-tetrahydro-3-isoquinoline-carboxamide], for which the IC50 was 0.082 µg/mL in assay [1] (selectivity table, Human Leukocyte Elastase); above 8.01 µM in assay [2]; above 8.01 µM in [3]; above 8.01 µM in assay [4]; above 8.01 µM in assay [5]; above 8.01 µM in assay [6]. Besides, the figures for the IC50 in assay [7], in assay [8] and in assay [9] were above 8.01 µM, above 66.7 µM and above 50 µg/mL, respectively.
